In patent US12207654B2, “Bactericidal agent for agricultural or horticultural use, plant disease control method, and product for plant disease control use” (Kureha Corporation, priority 2019, dated 2025):
“And” between values parts separate entries of the source, which are not always exact repeats. Identical values can stand only once. Like-named read-outs stand apart in the source and are kept apart here.

Columns and labels:
Gaeumannomyces graminis = assay: In vitro antimicrobial activity test on PDA plate media (colony diameter); assay type: cell-based; conditions: used alone
Cercospora beticola = assay: In vitro antimicrobial activity test in 96-well microplate (absorbance at 620 nm); assay type: cell-based; conditions: used alone
[1] = test system: Alternaria alternata apple pathotype; assay: In vitro antimicrobial activity test on PDA plate media (colony diameter); assay type: cell-based; conditions: used alone; for inhibition at 0.13 ppm: Alternaria alternata, read-out: Actual fungal growth inhibition rate (%)
Glomerella cingulata = assay: as above; assay type: cell-based
Microdocum nivale = assay: as above; assay type: cell-based; conditions: used alone
Fusarium graminearum = assay: microbe, parasite or virus in culture; assay type: cell-based; conditions: Fusarium graminearum, read-out: Actual fungal growth inhibition rate (%)
Pyrenophora graminea = assay: In vitro antimicrobial activity test on PDA plate media (colony diameter); assay type: cell-based; conditions: used alone
Penicillium italicum = assay: as above; assay type: cell-based; conditions: Penicillium italicum, read-out: Actual fungal growth inhibition rate (%)
[2] = test system: wheat leaf rust (Puccinia recondita); assay: Controlling effect test against wheat leaf rust (foliar spray on potted wheat seedlings); assay type: in vivo; conditions: sprayed alone
Fusarium fujikuroi = assay: In vitro antimicrobial activity test on PDA plate media (colony diameter); assay type: cell-based; conditions: Fusarium fujikuroi, used alone, read-out: Actual fungal growth inhibition rate (%)
[3] = Colletotrichum gloeosporioides, used alone, 0.01 ppm, read-out: Actual fungal growth inhibition rate (%)
[4] = Pyrenophora graminea, 0.50 ppm, read-out: Actual fungal growth inhibition rate (%)
[5] = Gaeumannomyces graminis, read-out: Actual fungal growth inhibition rate (%)
[6] = Gaeumannomyces graminis, 0.50 ppm, read-out: Actual fungal growth inhibition rate (%)
[7] = Colletotrichum gloeosporioides, used alone, 0.50 ppm, read-out: Actual fungal growth inhibition rate (%)
[8] = Gaeumannomyces graminis, 0.002 ppm, read-out: Actual fungal growth inhibition rate (%)

Cn1cc(C(=O)Nc2ccccc2-c2cc(F)c(F)c(F)c2)c(C(F)F)n1 [Fluxapyroxad, fluxapyroxad, reference compound]
Actual fungal growth inhibition rate (%) (Gaeumannomyces graminis; 0.10 ppm): 0% | Actual fungal growth inhibition rate (%) (Gaeumannomyces graminis; 1.56 ppm): 0% and 9%

CC(C)c1ccc(Cl)cc1CN(C(=O)c1c(C(F)F)nn(C)c1F)C1CC1 [Isoflucypram, isoflucypram]
Actual growth inhibition rate (Cercospora beticola; 0.008 ppm): 7% | Actual growth inhibition rate (Cercospora beticola; 0.04 ppm): 3% | Actual growth inhibition rate (Cercospora beticola; 0.2 ppm): 0% | Actual growth inhibition rate (Cercospora beticola; 1.0 ppm): 48%

CC(O)(Cn1cncn1)c1ccc(Oc2ccc(Cl)cc2)cc1C(F)(F)F (stereo not drawn) [Mefentrifluconazole, mefentrifluconazole, reference compound]
Actual fungal growth inhibition rate (%) (Gaeumannomyces graminis; 0.002 ppm): 0% | Actual fungal growth inhibition rate (%) (Gaeumannomyces graminis; 0.01 ppm): 0% | Actual fungal growth inhibition rate (%) (Gaeumannomyces graminis; 0.03 ppm): 19% | Actual fungal growth inhibition rate (%) ([1]; 0.50 ppm): 62% | Actual fungal growth inhibition rate (%) (Glomerella cingulata; Glomerella cingulata, single chemical at 0.13 ppm): 74% | Actual fungal growth inhibition rate (%) (Glomerella cingulata; used alone, 0.01 ppm): 17% | Actual fungal growth inhibition rate (%) (Glomerella cingulata; used alone, 0.03 ppm): 41% | Actual fungal growth inhibition rate (%) (Glomerella cingulata; used alone, 0.50 ppm): 77% | Actual fungal growth inhibition rate (%) (Microdocum nivale; 0.01 ppm): 1%

CC1(C)CCC(Cc2ccc(Cl)cc2)C1(O)Cn1cncn1 (stereo not drawn) [Metconazole, metconazole, reference compound]
inhibition at 0.001 ppm (Glomerella cingulata; Colletotrichum gloeosporioides, used alone, 0.001 ppm, read-out: Actual fungal growth inhibition rate (%)): 4% | inhibition at 0.003 ppm (Glomerella cingulata; Colletotrichum gloeosporioides, used alone, 0.003 ppm, read-out: Actual fungal growth inhibition rate (%)): 7% | inhibition at 0.01 ppm (Glomerella cingulata; [3]): 28%

CC(C)CC(C)c1sccc1NC(=O)c1cn(C)nc1C(F)(F)F (stereo not drawn) [Penthiopyrad, penthiopyrad]
inhibition at 1.25 ppm (Fusarium graminearum): 7% | inhibition at 5 ppm (Fusarium graminearum): 22% | inhibition at 20 ppm (Fusarium graminearum): 28%

OC(Cc1ccccc1Cl)(Cn1nc[nH]c1=S)C1(Cl)CC1 (stereo not drawn) [Prothioconazole, prothioconazole, reference compound]
inhibition at 0.01 ppm (Fusarium graminearum): 1% | inhibition at 0.03 ppm (Fusarium graminearum): 19% | inhibition at 0.5 ppm (Pyrenophora graminea; [4]): 54% | inhibition at 0.13 ppm (Gaeumannomyces graminis; [5]): 0% | inhibition at 0.5 ppm (Gaeumannomyces graminis; [6]): 36% | inhibition at 0.13 ppm [1]: 48% | inhibition at 0.01 ppm (Glomerella cingulata; [3]): 0% | inhibition at 0.03 ppm (Glomerella cingulata; Colletotrichum gloeosporioides, used alone, 0.03 ppm, read-out: Actual fungal growth inhibition rate (%)): 1% | inhibition at 0.13 ppm (Glomerella cingulata; Colletotrichum gloeosporioides, used alone, 0.13 ppm, read-out: Actual fungal growth inhibition rate (%)): 0% | inhibition at 0.5 ppm (Glomerella cingulata; [7]): 24% | inhibition at 0.13 ppm (Penicillium italicum; used alone, 0.13 ppm): 18% | inhibition at 0.13 ppm (Penicillium italicum; single chemical at 0.13 ppm): 19% | inhibition at 0.13 ppm (Microdocum nivale; 0.13 ppm, read-out: Actual fungal growth inhibition rate (%)): 13%

CON(C(=O)c1cn(C)nc1C(F)F)C(C)Cc1c(Cl)cc(Cl)cc1Cl (stereo not drawn) [Pydiflumetofen, pydiflumetofen, reference compound]
Actual controlling rate ([2]; 0.63 g/ha): 11% | Actual controlling rate ([2]; 1.25 g/ha): 44% | Actual controlling rate ([2]; 2.5 g/ha): 44% | Actual controlling rate ([2]; 5 g/ha): 67% | Actual controlling rate ([2]; 10 g/ha): 83%

CCCN(CC)CC1COC2(CCC(C(C)(C)C)CC2)O1 (stereo not drawn) [Spiroxamine, spiroxamine, reference compound]
inhibition at 0.01 ppm (Pyrenophora graminea; Pyrenophora graminea, 0.01 ppm, read-out: Actual fungal growth inhibition rate (%)): 0% | inhibition at 0.03 ppm (Pyrenophora graminea; Pyrenophora graminea, 0.03 ppm, read-out: Actual fungal growth inhibition rate (%)): 0% | inhibition at 0.002 ppm (Gaeumannomyces graminis; [8]): 0% | inhibition at 0.13 ppm (Gaeumannomyces graminis; [5]): 0%

CON=C(C(=O)OC)c1ccccc1CON=C(C)c1cccc(C(F)(F)F)c1 [Trifloxystrobin, trifloxystrobin, reference compound]
inhibition at 0.13 ppm (Pyrenophora graminea; Pyrenophora graminea, 0.13 ppm, read-out: Actual fungal growth inhibition rate (%)): 54% | inhibition at 0.5 ppm (Pyrenophora graminea; [4]): 54% | Actual fungal growth inhibition rate (%) (Pyrenophora graminea; 0.50 ppm): 55% | inhibition at 0.002 ppm (Gaeumannomyces graminis; [8]): 8% | inhibition at 0.03 ppm (Gaeumannomyces graminis; Gaeumannomyces graminis, 0.03 ppm, read-out: Actual fungal growth inhibition rate (%)): 5% | inhibition at 0.13 ppm (Gaeumannomyces graminis; [5]): 11% | inhibition at 0.5 ppm (Gaeumannomyces graminis; [6]): 15% | Actual fungal growth inhibition rate (%) (Gaeumannomyces graminis; 0.50 ppm): 9% | inhibition at 0.13 ppm [1]: 48% | inhibition at 0.002 ppm (Fusarium fujikuroi; 0.002 ppm): 0% | inhibition at 0.01 ppm (Fusarium fujikuroi; 0.01 ppm): 10% | inhibition at 0.5 ppm (Glomerella cingulata; [7]): 46% | inhibition at 0.5 ppm (Penicillium italicum; used alone, 0.50 ppm): 90% | inhibition at 0.03 ppm (Microdocum nivale; 0.03 ppm, read-out: Actual fungal growth inhibition rate (%)): 65%
